Results taken from ChEMBL document CHEMBL1201862, “PubChem BioAssay data set” (2004).
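Step 1: Grow cells in 96-well plates. Step 2: Expose to compound for 48 hours at 5 concentrations. Step 3: Interpolate endpoints linearly; if unreached, use highest concentration. GI50 = concentration required for 50% inhibition of growth.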 Calls of active or inactive are those of the source. Rule as the data show it: active = GI50 up to about 1.1 µM and inactive = higher.

What was measured:
Experiment in all cases: NCI tumour cell line growth inhibition, 48 h
HOP-92 = tested on: HOP-92
COLO 205 = tested on: COLO 205
NCI-H460 = tested on: NCI-H460
OVCAR-3 = tested on: OVCAR-3
HT-29 = tested on: HT-29
HL-60 = tested on: HL-60
MCF7 = tested on: MCF7
KM12 = tested on: KM12
MDA-MB-435 = tested on: MDA-MB-435
K562 = tested on: K562
RPMI-8226 = tested on: RPMI-8226
A498 = tested on: A498
NCI-H522 = tested on: NCI-H522
MDA-N = tested on: MDA-N
T47D = tested on: T47D
OVCAR-5 = tested on: OVCAR-5
SF-539 = tested on: SF-539
SW-620 = tested on: SW-620
SNB-19 = tested on: SNB-19
U-251 = tested on: U-251
SF-268 = tested on: SF-268
UACC-257 = tested on: UACC-257
DU-145 = tested on: DU-145
IGROV-1 = tested on: IGROV-1
Malme-3M = tested on: Malme-3M
TK-10 = tested on: TK-10
SK-MEL-28 = tested on: SK-MEL-28
HCT-116 = tested on: HCT-116
OVCAR-4 = tested on: OVCAR-4
NCI/ADR-RES = tested on: NCI/ADR-RES
SK-MEL-2 = tested on: SK-MEL-2
SF-295 = tested on: SF-295
UO-31 = tested on: UO-31
A549 = tested on: A549
PC-3 = tested on: PC-3
MOLT-4 = tested on: MOLT-4
BT-549 = tested on: BT-549
SN12C = tested on: SN12C
HOP-62 = tested on: HOP-62
LOX IMVI = tested on: LOX IMVI
UACC-62 = tested on: UACC-62
HCT-15 = tested on: HCT-15
NCI-H23 = tested on: NCI-H23
M14 = tested on: M14
CAKI-1 = tested on: CAKI-1
ACHN = tested on: ACHN
NCI-H226 = tested on: NCI-H226
Hs-578T = tested on: Hs-578T
786-0 = tested on: 786-0
EKVX = tested on: EKVX
SNB-75 = tested on: SNB-75
SK-OV-3 = tested on: SK-OV-3
SK-MEL-5 = tested on: SK-MEL-5
CCRF-CEM = tested on: CCRF-CEM
MDA-MB-231 = tested on: MDA-MB-231
OVCAR-8 = tested on: OVCAR-8

Measured: GI50

CC(C)CC1[C@@H](OCc2ccccc2)COS(=O)(=O)N1Cc1ccccc1 (stereo partly specified)
inactive: HOP-92 > 100 µM | COLO 205 > 100 µM | NCI-H460 > 100 µM | OVCAR-3 > 100 µM | HT-29 38.9 µM | HL-60 46.2 µM | MCF7 91.8 µM | KM12 20.7 µM | MDA-MB-435 44.5 µM | K562 50.9 µM | RPMI-8226 31.9 µM | A498 > 100 µM | NCI-H522 24.4 µM | MDA-N > 10 µM | T47D > 100 µM | OVCAR-5 > 100 µM | SF-539 > 100 µM | SW-620 > 100 µM | SNB-19 48.1 µM | U-251 > 100 µM | SF-268 6.64 µM | UACC-257 > 100 µM | DU-145 > 100 µM | IGROV-1 81.7 µM | Malme-3M 62.5 µM | TK-10 > 100 µM | SK-MEL-28 > 100 µM | HCT-116 53.5 µM | OVCAR-4 > 100 µM | NCI/ADR-RES 52.6 µM | SK-MEL-2 > 100 µM | SF-295 27.6 µM | UO-31 27.2 µM | A549 67.6 µM | PC-3 65.5 µM | MOLT-4 73.6 µM | BT-549 > 100 µM | SN12C > 100 µM | HOP-62 > 100 µM | LOX IMVI > 100 µM | UACC-62 > 100 µM | NCI-H23 20.7 µM | M14 > 100 µM | CAKI-1 > 100 µM | ACHN > 100 µM | NCI-H226 86.7 µM | Hs-578T 14.7 µM | 786-0 > 100 µM | EKVX > 100 µM | SNB-75 82 µM | SK-OV-3 > 100 µM | SK-MEL-5 83.2 µM | CCRF-CEM > 100 µM | MDA-MB-231 > 100 µM | OVCAR-8 > 100 µM
74.5 µM: HCT-15
